Assay results: patent publication US7598344B2, “Composition, method and use of bi-functional biomaterials” (Board of Regents, The University of Texas System, priority 2002, dated 2009)
Ends that are not written are not given here.

How the values were obtained:
[1] = Biotinylated T59 peptide binding, streptavidin-FITC labeling, on PPyCl; settings: 15 μM peptide, 0.5×0.5 cm^2 substrate
Experimental: (§1) (b) 15 μM peptide bound to 0.5×0.5 cm^2 PPyCl substrate. (c) 15 μM peptide bound to 0.5×0.5 cm^2 PPyPSS substrate. (d) 15 μM peptide bound to 0.5×0.5 cm^2 polystyrene (PS) substrate. All samples were incubated with equal concentrations of streptavidin-FITC. Bar, 10 μm.
(§2) Additional working example data were obtained for the polypyrrole system. A peptide was synthesized whose sequence was determined from the T59 phage (ie., SEQ ID NO. 1).

[2] = Biotinylated T59 peptide binding, streptavidin-FITC labeling, on polystyrene; settings: 15 μM peptide, 0.5×0.5 cm^2 substrate
Experimental: as §1, §2

[3] = serum-containing media, pH 7.4, 15% serum; 3 hr, 7 days, 3 weeks
Experimental: Binding was studied using biotinylated T59 peptide and streptavidin-FITC labeling. (a) control substrate in which no T59 peptide was added, 0.5×0.5 cm2 PPyCl substrates (b) and (c) were incubated with 15 μM peptide, the samples were then placed in serum-containing media (pH 7.4 and 15% serum) for 3 hr (b), 7 days (c), and 3 weeks (d). Bar, 10 μm.
In addition, T59 peptide binding stability in serum-containing medium was also evaluated in working examples using immunofluorescence (note that all previous experiments were done in saline buffer).

## THRTSTLDYFVI (also: biotinylated, position not given here) [T59 peptide]
[1]
  peptide binding to PPyCl: binds to PPyCl
[2]
  peptide binding to polystyrene (PS): not to PPyPSS or to polystyrene (PS)
[3]
  binding stability of PPyCl-bound peptide: a significant fraction of T59 peptides remained bound to PPyCl even after 3 weeks
